Results on 138 molecules are retold here after the pKa sets of Baltruschat and Czodrowski (2020).

SMILES strings stand for the structures.

For one series the following is noted: acidic group.
`O=C([O-])C(CO)[NH2+]Cc1cc([N+](=O)[O-])ccc1O` (configuration not stated) came in with a pKa of 6.15.
Still for that read-out and setting: to `Nc1ccc(S(=O)(=O)Nc2nccs2)cc1` belongs 7.25; to `CC(=O)C1=CC=CC1`, 8.84; to `Cc1ccc(O)c(C(C)C)c1`, 10.7.
In turn, `Nc1cccc(O)c1` showed a pKa of 9.85.
The molecule `O=C(O)C1CCCC1` displayed a pKa of 4.99.
For the molecule `CCCCCCCCCCc1c(-c2ccccc2)n[nH]c1O`, the pKa was found to be 11.
With `O=[N+]([O-])c1ccccc1B(O)O`, the pKa was 8.52.
For `CNC(=O)Oc1ccc2c(c1)[C@@]1(C)CC[NH+](C)[C@H]1N2C`, the pKa was determined as 6.12.
`O=C1CCCC2CCCC(=O)C12` (configuration not stated): the pKa amounted to 11.1.
Molecule `CCc1c(-c2ccccc2)n[nH]c1O` came in with a pKa of 7.8.
For `Cc1ccc(O)c(C)c1`, the pKa amounted to 10.6.
The same measure, in the same setting: the value for `COc1cccc(S)c1` was 6.39.
On to `C=CCc1c(C)nn(C)c1O`, for which the pKa stood at 10.5.
Molecule `Oc1cccc2ccncc12` came in with a pKa of 8.4.
In turn, `C/C(=N\O)C(=O)[N-]O` gave a pKa of 11.
`O=C1O[C@@H]([C@@H](O)CO)C(O)=C1O` displayed a pKa of 4.16.
As to `NS(=O)(=O)C(F)(F)Br`, the pKa was determined as 6.53.
Same read-out and setting: the value for `CN(C)C(=O)c1ncnc2nc[nH]c12` was 7.9.
The same measure, in the same setting: the value for `O=C1CC(=O)C(=O)C1` was 3; that for `Cc1ccc(C)c(C(=O)O)c1` was 3.97; that for `CCCC[P+](CCCC)(CCCC)C1c2ccccc2-c2ccccc21` was 10.5.
Molecule `C[C@H]1CCCC[C@@H]1C(=O)O` registered a pKa of 4.74.
As to `CC(=N\O)/C(CN(C)C)=N\[O-]`, the pKa turned out to be 12.5.
As for `Cc1ccc(NN=C(C#N)C#N)c([N+](=O)[O-])c1`, the pKa was found to be 6.
For the molecule `CCCc1nnn[nH]1`, the pKa was determined as 5.61.
In the case of `Oc1cncc2ccccc12`, the pKa amounted to 8.68.
On the same count and under the same terms, the value for `Cc1cc(Cc2cc(C)c(O)c(C)c2)c(O)c([N+](=O)[O-])c1` was 7.98; that for `Nc1ccc(S(=O)(=O)Nc2nncs2)cc1` was 4.77; that for `O=c1ccccc(O)c1O` was 6.72.
For the molecule `OC[C@@H]1O[C@@H]2NC(=S)O[C@@H]2[C@H]1O`, the pKa was determined as 9.48.
Turning to `N#CCC(=O)O`, the pKa came out at 2.46.
As to `O=C(O)C(=O)/C=C/c1ccccc1`, the pKa worked out at 1.97.
`N#CC(C#N)=C(C#N)NC1CCCCC1` returned a pKa of 6.01.
The same measure, in the same setting: to `Cc1ccc(C(=O)O)s1` belongs 3.76; to `C[n+]1ccn(CCC[n+]2ccc(/C=N/O)cc2)c1`, 8.05.
As for `O=C([O-])c1cc([N+](=O)[O-])ccc1O`, the pKa is 10.1.
`C[S+](C)c1cccc(O)c1` displayed a pKa of 7.67.
`Oc1ccc[nH+]c1` came in with a pKa of 5.01.
Molecule `Cc1n[nH]c2ncnc(N)c12` registered a pKa of 11.1.
As to `Cc1ccc(O)c(Cc2cc(C)cc([N+](=O)[O-])c2O)c1`, the pKa was 6.87.
For `CCC(C)C[C@H]([NH3+])C(=O)O` (some centres not stated), the pKa turned out to be 3.25.
For `C(CSCCc1nnn[nH]1)SCCc1nnn[nH]1`, the pKa is 5.
Turning to `CN1C(=O)NCc2[nH]cnc21`, the pKa was 11.1.
`C[NH+](C)CCCCNC(=O)/C=N/O` returned a pKa of 8.81.
Same read-out and setting: to `O=C(O)CCc1nnnn1-c1ccccc1` belongs 5; to `O=C(O)[C@@H]1O[C@H](Oc2cccc3ccc[nH+]c23)[C@@H](O)[C@H](O)[C@H]1O`, 3.01.
In turn, `CCOC(=O)Nc1nnc(-c2ccccc2)s1` returned a pKa of 8.2.
On the same count and under the same terms, the value for `[NH3+]CCc1nnn[nH]1` was 3.99.
Molecule `Cc1c(O)n[nH]c1-c1ccccc1` gave a pKa of 7.6.
In turn, `COc1ccc(/C=C/C(=O)O)cc1` registered a pKa of 4.6.
On the same count and under the same terms, the value for `C[n+]1ccc2ccccc2c1S` was -2.13; that for `O=C1c2ccccc2C(=O)N1O` was 6.13; that for `CCCCCCCCCCCCCC(=O)N(O)c1ccccc1` was 9.05.
`Cc1ccc(S(=O)(=O)NCC(=O)[O-])cc1` came in with a pKa of 11.4.
`O=C([O-])C[NH+](CC(=O)[O-])Cc1cc(Cl)cc(C[NH+](CC(=O)[O-])CC(=O)[O-])c1O`: the pKa was 6.27.
Take `Cc1ccc(C(=O)O)cc1Br`: the pKa amounted to 3.96.
Consider `Cc1cnc2c(O)cccc2c1C`, for which the pKa is 10.1.
Turning to `CCCCB(O)O`, the pKa is 10.7.
Same read-out and setting: the value for `O=C1COC(=O)C1Cl` (configuration not stated) was 2.13; that for `O=C(O)C[C@]1(O)C[C@H]2CC[C@@H]1C2` was 4.57; that for `[NH3+][C@@H](Cn1cccn1)C(=O)O` was 2.2.
On to `O=[N+]([O-])c1cc(Cl)ccc1O`, for which the pKa stood at 3.5.

The series is the same for the next values; noted with them: basic group.
`CC(C)CCN` yielded a pKa of 10.9.
With `Nc1cnc2c(N)nc(N)nc2n1`, the pKa was 6.3.
For the molecule `Nc1ccc(S(=O)(=O)Nc2nccs2)cc1`, the pKa was 2.35.
`CCNc1nc(Cl)nc(NC(C)C)n1` yielded a pKa of 1.61.
Molecule `CC(=O)n1ccnc1Cc1[nH]cc[nH+]1` returned a pKa of 1.93.
Still for that read-out and setting: the value for `COc1ccc(-c2ncc(-c3ccc(N)cc3)o2)cc1` was 3.71; that for `Cc1ccnc(N)c1` was 7.48.
`Cc1ccc(NCCNc2ccc(C)cc2)cc1` showed a pKa of 4.
As for `Nc1cccc(O)c1`, the pKa stood at 4.29.
As for `CN(C)/C=N/c1ccc(Cl)cc1`, the pKa amounted to 8.46.
Turning to `Nc1ccc2ccccc2c1[N+](=O)[O-]`, the pKa is -0.92.
On the same count and under the same terms, to `CC(C)(N)Cc1ccccc1` belongs 10.1; to `CN[C@H]1C[C@@H]1[NH2+]C`, 5.65; to `CCn1ccnc1C`, 8.09.
Turning to `Cc1ccc(N)cc1CN`, the pKa is 9.33.
In turn, `CC1NCCC[NH2+]1` displayed a pKa of 7.19.
In turn, `O=[N+]([O-])c1cccc2cnccc12` returned a pKa of 3.46.
Still for that read-out and setting: the value for `c1ccc(C2NCCS2)cc1` (configuration not stated) was 5.2; that for `Oc1cccc2ccncc12` was 5.66; that for `NCCSCC[NH3+]` was 8.84.
Molecule `CCCCCCCCNCCC(=O)[O-]` showed a pKa of 10.6.
`Cn1/c(=N\N)sc2ccccc21` gave a pKa of 6.1.
Regarding `Cc1ccc2nc3ccc(C)cc3cc2c1`, the pKa came out at 4.5.
Take `Cn1cc/c(=N\N)c2ccccc21`: the pKa was 10.6.
`COc1nccc2ccccc12` showed a pKa of 3.05.
As for `CCC(C)C(=O)CCN1CCOCC1` (configuration not stated), the pKa was found to be 7.07.
Still for that read-out and setting: to `c1ccc(-n2cccn2)nc1` belongs 1.07; to `NCCCCl`, 9.89.
`CSC(=N)c1ccccc1` yielded a pKa of 5.84.
`CCCCCCCCCCCCCCN` had a pKa of 10.6.
In turn, `[S-]c1ncc2nccnc2n1` had a pKa of 6.52.
`O=C([O-])c1cc2cc(Cn3ccnc3)ccc2s1` displayed a pKa of 6.77.
In the case of `CCN(CC#N)CC#N`, the pKa is 3.98.
In turn, `CSc1ccc(N)c(Cl)c1` displayed a pKa of 2.56.
Molecule `CC(C)NCC(O)COc1ccccc1` (configuration not stated) returned a pKa of 9.45.
The molecule `Cc1ccc(NN=C(C#N)C#N)c([N+](=O)[O-])c1` yielded a pKa of -0.78.
For the molecule `CN(C)Cc1ccc(C[NH+](C)C)c(O)c1O`, the pKa is 6.39.
`Oc1cncc2ccccc12`: the pKa worked out at 4.8.
Regarding `C[NH+](C)CCCNc1ccnc2c([N+](=O)[O-])cccc12`, the pKa was determined as 6.91.
Turning to `CCc1cc(-c2ccccc2)nnc1NCC[NH+]1CCOCC1`, the pKa is 4.37.
With `CCCCCCCCCCNCCC(=O)[O-]`, the pKa is 10.6.
`Nc1ccc(S(=O)(=O)Nc2nncs2)cc1`: the pKa amounted to 2.15.
`N[C@H]1CCCC[C@@H]1O`: the pKa is 9.35.
The molecule `NCCCCCCCCCCCCN` came in with a pKa of 10.8.
Regarding `CCCCCCNCCC(=O)[O-]`, the pKa came to 10.6.
The same measure, in the same setting: the value for `CN[C@H]1C[C@]1(C)[NH2+]C` was 5.52; that for `Nc1ncnc([S-])c1N` was 9.34; that for `CNCc1ccc(C)cc1` was 9.93.
On to `C[NH2+]CCNCCN`, for which the pKa came to 9.57.
`COc1cccc2c1CN(C1CC3CCC(C1)N3Cc1ccccc1)C2=O` (configuration not stated): the pKa came to 8.68.
Molecule `Cc1ccc(C(=O)O)s1` had a pKa of -0.57.
Molecule `N[C@H](C(=O)[O-])[C@H](O)C(=O)[O-]` came in with a pKa of 8.75.
With `CCCCCCN(CCO)CC(C)O` (configuration not stated), the pKa came out at 9.
Turning to `O=C(O)c1nccs1`, the pKa amounted to 2.57.
For the molecule `Cc1n[nH]c2ncnc(N)c12`, the pKa was 4.61.
As to `CCC(O)CN(CC(C)O)C(C)(C)C` (configuration not stated), the pKa is 9.5.
The molecule `Cc1cc(-c2ccccn2)nn1C` returned a pKa of 4.52.
As for `COCCN(C)c1ccccc1`, the pKa is 4.81.
As for `CC(C)SCCN`, the pKa was 9.23.
On to `Nc1ccc2cc3c(ccc4ccccc43)nc2c1`, for which the pKa was determined as 7.42.
As to `NC12CCC(C1)C2`, the pKa is 9.3.
In turn, `CCCCNCc1ccc(C)cc1` showed a pKa of 9.98.
For `CN(C)CCOCCN(C)C`, the pKa came out at 9.8.
`CCN(CC)c1ccc(C)cc1`: the pKa came out at 7.18.
`Cn1cc(N)cc1C(=O)[O-]` showed a pKa of 7.
Turning to `C1CCC(C2CCCN2)CC1` (configuration not stated), the pKa worked out at 10.8.
The molecule `C[C@H]1CC[C@H]2[C@H](C)CC[C@@H](C(=O)[O-])N2C1` displayed a pKa of 10.8.
`Cc1ccc(C2NCCS2)cc1` (configuration not stated): the pKa was 5.35.
Turning to `CC[NH+](C)CCOCCN(C)C`, the pKa is 7.96.
On the same count and under the same terms, the value for `CNC(=O)NC` was 1.02; that for `O=[N+]([O-])c1cc(-c2ccccc2)nnc1NCCN1CCOCC1` was 6.56.
On the same count and under the same terms, to `OCCNC1CC[NH+](Cc2ccccc2)CC1` belongs 6.67; to `NCCCCCCN`, 11.
`CCN(CC)Cc1c(C)cccc1O` showed a pKa of 8.65.
The same measure, in the same setting: the value for `OCCCNc1ccccc1` was 4.53; that for `Cc1ccccc1C(=NCC[NH+](C)C)c1ccccc1C` was 2.82; that for `Cc1cnc2c(O)cccc2c1C` was 5.8.
Consider `CC(C)(C)n1ccnc1`, for which the pKa amounted to 7.35.
Molecule `CNc1ccc(O)cc1` gave a pKa of 6.
`COc1ccc(OC)c2c1nc(CO)n2C` showed a pKa of 5.24.
In the case of `CC(=O)c1cccnc1`, the pKa was determined as 3.32.
On to `OC[C@@H]1CCN2CC[C@H](O)[C@H]12`, for which the pKa is 10.2.
`Cc1ccccc1/C(=N\CCC[NH+](C)C)c1ccccc1-c1ccccc1` showed a pKa of 4.67.
Take `Cn1ccc(=O)c2ccccc21`: the pKa worked out at 2.36.
